System: wheat and barley
Assay: Post-emergence greenhouse test of herbicide mixture with safener (Example B1)
Format: in vivo
Details: greenhouse pots, mixture of MCPA, bromoxynil and herbicide H1 or H2, alone vs. with safener (admixture or seed dressing), evaluated after 9, 10, 20 and 24 days, 100% action=plant completely dead, 0%=no phytotoxic action
Description: Examples B1: Post-emergence applications of mixtures of MCPA, bromoxynil and the herbicide of formula I wherein R1 and R3 are —C2H5; R4 and R5 together form a group —CR14(R15)—CR16(R17)—O—CR18(R19)—CR20(R21)— wherein R14, R15 R16, R17, R18, R19, R20 and R21 are hydrogen; and G is either hydrogen (=herbicide H1) or (CH3)3CC(O)— (=herbicide H2), with the safener of formula II wherein Rs1 is chlorine and Rs2 is 1-methylhexyl, in wheat and barley, and together with 3 different weeds.
The test plants are grown to a post-application stage in pots under greenhouse conditions. A standard soil is used as cultivation substrate. At a post-emergence stage, the herbicides, both on their own and in admixture with the safener, are applied to the test plants or to cultivated plants seed-dressed with safener. The application is carried out using an emulsion (prepared from a 25% emulsifiable concentrate (Example F1, b)) of the test substances using 500 litres of water per ha. The rates of application depend on the optimum concentrations ascertained under field conditions and greenhouse conditions. The tests are evaluated after 9, 10, 20 and 24 days (100% action=plant is completely dead, 0% action=no phytotoxic action).

`CCCCCC(C)OC(=O)COc1ccc(Cl)c2cccnc12` (stereo not shown) [safener] was tested, and the “damage caused to the cultivated plants by the herbicide mixture (phytotoxic action)” value was “significantly reduce the damage”.

Reference: patent US20050124493A1, “Herbicidal composition” (priority 2002, published 2005)
